Patent US20100168054A1, “Functionalized Beta 1,6 Glucosamine Disaccharides and Process for Their Preparation” (OM PHARMA, priority 2006, published 2010)
Read-outs that look alike come from different tables or passages of the source. One block for each compound: values may come before it.

Assays:
rat mast cells = experiment: Histamine secretion (compound 48/80-stimulated); format: cell-based; conditions: compound 48/80 0.1 μg/ml, 2 min, 37° C.
Excerpt: Using an in vitro rat model of mast cell degranulation (proposed by the CRO CEREP, catalog number 2006: 771-c), we aimed to investigate whether the synthetic molecules OM-174-DP (compound 1b) OM-174-MP-PD (19), OM-174-MP-EP (33), OM-174-MP-CM (35c) and OM-174-MP-PR (17) would inhibit histamine secretion by compound 48/80-stimulated mastocytes. The protocol used is briefly summarized below:
The results are expressed as a percent of control specific activity ((measured specific activity/control specific activity)×100) obtained in the presence of the test compounds. The IC50 values (concentration causing a half-maximal inhibition of control specific activity) were determined by non-linear regression analysis of the inhibition curves generated with mean replicate values using Hill equation curve fitting (Y=D+[(A−D)/(1+(C/C50)nH)], where Y=specific activity, D=minimum specific activity, A=maximum specific activity, C=compound concentration, C50=IC50, and nH=slope factor). This analysis was performed using a software developed at Cerep (Hill software) and validated by comparison with data generated by the commercial software SigmaPlot® 4.0 for Windows® (© 1997 by SPSS Inc.).
In each experiment, the reference compound was tested concurrently with the test compounds in order to assess the assay suitability. It was tested at several concentrations (for IC50 value determination), and the data were compared with historical values determined at CEREP. The assay was rendered valid if the suitability criteria were met, in accordance with the corresponding Standard Operating Procedure.

[1] = tested on: human peripheral blood mononuclear cells (PBMC); experiment: TNF-α secretion by human PBMC (ELISA); format: cell-based; conditions: for TNF-α: 24 h; for TNF-α induction (in words): 0.2, 2, 20 μg/ml
Protocol: (§1) Peripheral blood from healthy donors (Centre de transfusion, Hôpital Universitaire, Geneva) was centrifuged to get the buffy coat. The buffy coat was mixed with Hanks' balanced saline solution (HBSS, Sigma, Buchs, Switzerland), layered over Ficoll Paque Plus (Amersham Pharmacia) to 1.077 g/mL and centrifuged (2800 rpm, 20° C., 25 min). Cells harvested from the interphase were washed twice in HBSS at 800 rpm for 15 min at room temperature and the pelleted cells were resuspended in HBSS. The cell counts were performed using a Neubauer cell. All cell cultures were performed in RPMI-1640 medium supplemented with penicillin (100 U/mL), streptomycin (100 μg/mL), L-glutamine (2 mmol/L) and 10% fetal calf serum (FCS), all obtained from Sigma. For in vitro stimulation, the cells were cultured at a concentration of 1×10^6 viable cells/well.
(§2) PBMC were incubated at 37° C. and under 5% CO2 atmosphere with the controls (see below) and with the products of the invention at 1, 5, and 20 μg/mL for IL-6, and at 0.2, 2, and 20 μg/mL for TNF-α secretion. Medium: RPMI alone.
(§3) The surpernatants of the cultures were harvested after 24 h and the concentration of IL-6 and TNF-α were measured by an enzyme-linked immunosorbent assay (ELISA) (Human IL-6 and TNF-α ELISA Set, BD OptEIA, San Diego, USA), according to the manufacturer instructions. The detection limits were 10 and 8 pg/mL respectively.

[2] = tested on: human peripheral blood mononuclear cells (PBMC); experiment: IL-6 secretion by human PBMC (ELISA); format: cell-based; conditions: for IL6: 24 h
Protocol: as §1, §2, §3
PBMC are incubated at 37° C. and under 5% CO2 atmosphere with the products of the invention.
The supernatants of the cultures are harvested after 24 h and the concentration of IL-6 was measured by an enzyme-linked immunosorbent assay (ELISA) (Human IL-6 ELISA Set, BD OptEIA, San Diego, USA), according to the manufacturer instructions. The detection limit was 10 pg/mL.

[3] = tested on: THP1-Blue cells (express naturally both TLR2 and TLR4); experiment: THP1-Blue NF-κB/AP-1-inducible SEAP reporter; format: cell-based, human; conditions: 48 h
Protocol: A first series of experiment was performed on THP-1 cells, which express naturally both TLR2 and TLR4. THP-1 cells are human peripheral blood monocytic cells. Monocytes play a key role in innate immunity and express most TLRs at various levels. As for the primary cells, THP-1 cells activate NF-κB and other transcription factors in response to TLR ligands
To facilitate analysis of TLR response in monocytes, InvivoGen (Toulouse, France) provides THP-1 clones stably transfected with an NF-κB-inducible reporter system, called THP1-Blue™. THP-1 Blue cells were stably transfected with a reporter plasmid expressing a secreted embryonic alkaline phosphatase (SEAP) gene under the control of a promoter inducible by several transcription factors such as NF-κB and AP-1. Upon TLR stimulation, THP1-Blue™ cells activate transcription factors and subsequently the secretion of SEAP which is easily detectable when using QUANTI-Blue\u2122a medium that turns purple/blue in the presence of SEAP.
The cells were stimulated with the controls and compounds of the invention according to manufacturer's instructions. Results: Increased OD at 625 Nm after 48 Hours: The results for the controls (negative=LPS K12CD25 ultrapure, a TLR4 agonist; and PAM3CSK4=positive, a TLR2 agonist) are provided in the table below. The results (expressed as OD of arbitrary units) show the mean values (from duplicate measures) of Optical density read at 625 nm, 48 h after stimulation at 37° C. with the controls (up to 1000 ng/ml): […]

TLR4 = biological target: T1, TLR4 (Homo sapiens, UniProt O00206+Q9Y6Y9); experiment: HEK-MD2-TLR4-CD14 IL-8 secretion; format: cell-based; conditions: 24 h
T1 construct: expressed in transfected cells; host or cells: HEK293
T1 sequence (O00206 24-839): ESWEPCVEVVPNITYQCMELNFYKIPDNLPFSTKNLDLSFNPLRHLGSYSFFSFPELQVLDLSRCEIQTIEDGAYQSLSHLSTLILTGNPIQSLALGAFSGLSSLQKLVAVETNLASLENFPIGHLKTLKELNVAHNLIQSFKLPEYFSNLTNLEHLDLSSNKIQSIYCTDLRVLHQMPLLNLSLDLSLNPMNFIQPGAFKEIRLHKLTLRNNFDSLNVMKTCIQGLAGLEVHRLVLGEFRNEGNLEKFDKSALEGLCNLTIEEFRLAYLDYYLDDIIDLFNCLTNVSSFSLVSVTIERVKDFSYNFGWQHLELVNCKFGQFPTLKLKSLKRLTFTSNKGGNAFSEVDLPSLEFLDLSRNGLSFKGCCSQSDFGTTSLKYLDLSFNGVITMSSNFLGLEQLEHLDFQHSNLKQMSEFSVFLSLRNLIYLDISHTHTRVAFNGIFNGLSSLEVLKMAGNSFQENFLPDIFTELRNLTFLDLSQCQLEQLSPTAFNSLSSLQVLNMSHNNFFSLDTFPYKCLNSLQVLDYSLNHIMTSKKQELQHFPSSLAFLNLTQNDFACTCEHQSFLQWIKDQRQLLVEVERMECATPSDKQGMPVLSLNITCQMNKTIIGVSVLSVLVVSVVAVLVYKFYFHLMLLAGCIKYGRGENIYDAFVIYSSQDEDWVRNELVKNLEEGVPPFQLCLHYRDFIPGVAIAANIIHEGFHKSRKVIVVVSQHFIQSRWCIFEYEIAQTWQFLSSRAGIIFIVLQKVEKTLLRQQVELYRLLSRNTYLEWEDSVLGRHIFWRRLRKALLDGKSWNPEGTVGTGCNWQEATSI
T1 sequence (Q9Y6Y9 17-160 limits assumed): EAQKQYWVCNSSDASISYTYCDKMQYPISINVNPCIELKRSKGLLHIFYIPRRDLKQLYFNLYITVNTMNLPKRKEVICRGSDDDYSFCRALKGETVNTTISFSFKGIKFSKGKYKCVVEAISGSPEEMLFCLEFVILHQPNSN
Excerpt: (§4) The HEK293 cell line was chosen for its null or low basal expression of the TLR genes. These cells enable efficient monitoring of TLR activity using ELISA analysis such as IL-8 titration or reporter-based systems that monitor TLR-induced NF-κB activation. HEK-TLR2 cells (Invivogen, Toulouse, France) are engineered HEK293 cells stably transfected with multiple genes from the TLR2 pathway that include TLR2 and genes participating in the recognition or involved in the signaling cascade. These cells secrete IL-8 after TLR2 stimulation. The experiments were performed according to manufacturers' instructions. Briefly, 2×10^4 cells/well (200 ul RPMI) are incubated at 37° C. during 3 days (5% CO2). The medium is removed, and 90 ul RPMi+5% FCS is added to the wells Then the agonists and controls are added (10 ul/well). The cells return to the incubator for 24 hours. The supernatants are collected and the IL-8 ELISA is performed according to manufacturer's instructions
HEK-MD2-TLR4-CD14 are highly sensitive to LPS. They were obtained by stable transfection of HEK293 cells with the TLR4, MD2 and CD14 genes and an NF-κB-inducible reporter system. They secrete IL-8. We used the same experimental procedure as for the other HEK cell lines described above.

TLR2 and CD14 = biological target: T2, TLR2 and CD14 (Homo sapiens, UniProt O60603); experiment: HEK-TLR2-CD14 IL-8 secretion; format: cell-based; conditions: 24 h
T2 construct: expressed in transfected cells; host or cells: HEK (HEK-TLR2-CD14 cell line)
T2 sequence (O60603 21-784): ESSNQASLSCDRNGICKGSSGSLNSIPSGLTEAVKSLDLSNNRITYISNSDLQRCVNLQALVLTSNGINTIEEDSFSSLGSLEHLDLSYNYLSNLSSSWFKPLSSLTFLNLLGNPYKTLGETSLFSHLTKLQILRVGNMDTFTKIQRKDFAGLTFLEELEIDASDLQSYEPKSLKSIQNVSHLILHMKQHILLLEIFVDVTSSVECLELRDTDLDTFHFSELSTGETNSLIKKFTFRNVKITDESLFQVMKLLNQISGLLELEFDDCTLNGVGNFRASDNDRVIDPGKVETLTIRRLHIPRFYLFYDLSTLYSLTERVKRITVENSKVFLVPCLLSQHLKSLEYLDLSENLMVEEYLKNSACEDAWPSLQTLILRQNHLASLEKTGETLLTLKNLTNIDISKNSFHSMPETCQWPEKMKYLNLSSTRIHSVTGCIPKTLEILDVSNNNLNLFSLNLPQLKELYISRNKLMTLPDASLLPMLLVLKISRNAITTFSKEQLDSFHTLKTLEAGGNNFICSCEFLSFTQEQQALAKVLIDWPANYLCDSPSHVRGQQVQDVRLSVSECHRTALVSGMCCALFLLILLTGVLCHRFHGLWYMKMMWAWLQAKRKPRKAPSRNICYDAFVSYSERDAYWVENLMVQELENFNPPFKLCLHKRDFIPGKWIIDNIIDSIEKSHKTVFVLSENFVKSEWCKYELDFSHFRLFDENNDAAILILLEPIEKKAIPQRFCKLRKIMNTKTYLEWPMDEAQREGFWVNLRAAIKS
Excerpt: as §4, with “manufacturer's instructions These preliminary results were confirmed in another cell line expressing concomitantly TLR2 and CD14. The procedure used is similar to the one described just above.” for “manufacturer's instructions”

TLR2 = biological target: T3, TLR2 (Homo sapiens, UniProt O60603); experiment: HEK-TLR2 IL-8 secretion; format: cell-based; conditions: 24 h
T3 construct: host or cells: HEK293
T3 sequence (O60603 21-784): as above
Excerpt: as §4

IC50 (rat mast cells; read-out: IC50, mean of the reference (5 different tests)): 8.6 µM
Compound: O=C(O)c1cc(=O)c2c(OCC(O)COc3cccc4oc(C(=O)O)cc(=O)c34)cccc2o1 [SCG, reference compound]

IC50 (rat mast cells; read-out: IC50): 0.32 µM
Compound: CCCCCCCCCCCC(=O)O[C@H](CCCCCCCCCCC)CC(=O)N[C@H]1[C@H](OC[C@H]2O[C@H](OCC(=O)O)[C@H](NC(=O)C[C@H](O)CCCCCCCCCCC)[C@@H](O)[C@@H]2O)O[C@H](CO)[C@@H](OP(=O)(O)O)[C@@H]1O [compound 35c, 2-Carboxymethyl-2-Deoxy-6-O-[2-deoxy-4-O-(dihydroxyphosphoryl)-2-[(R)-3-dodecanoyloxytetradecanoylamino]-β-D-glucopyranosyl]-2-[(R)-3-hydroxytetradecanoylamino]-α-D-glucopyranoside]
TNF-α ([1]; 0.2 μg/ml): 48 pg/mL
TNF-α ([1]; 2 μg/ml): 502 pg/mL
TNF-α ([1]; 20 μg/ml): 591 pg/mL

Compound: CCCCCCCCCCCC(=O)O[C@H](CCCCCCCCCCC)CC(=O)NC1C(OCC2OC(OCCO)C(NC(=O)C[C@H](O)CCCCCCCCCCC)C(O)C2O)OC(CO)C(OP(=O)(O)O)C1O (stereo partly drawn) [compound 32, 2-Hydroxyethyl-2-Deoxy-6-O-[2-deoxy-4-O-(dihydroxyphosphoryl)-2-[(R)-3-dodecanoyloxytetradecanoylamino]-β-D-glucopyranosyl]-2-[(R)-3-hydroxytetradecanoylamino]-α-D-glucopyranoside]
TNF-α ([1]; 0.2 μg/ml): 5.5 pg/mL
TNF-α ([1]; 2 μg/ml): 7.8 pg/mL
TNF-α ([1]; 20 μg/ml): 251 pg/mL
TNF-α induction (in words) [1]: induced high levels of TNF-α

Compound: CCCCCCCCCCCC(=O)O[C@H](CCCCCCCCCCC)CC(=O)NC1C(OCC2OC(OCCCCCCN)C(NC(=O)C[C@H](O)CCCCCCCCCCC)C(O)C2O)OC(CO)C(OP(=O)(O)O)C1O (stereo partly drawn) [compound 26, 6-Aminohexyl-2-deoxy-6-O-[2-deoxy-4-O-(dihydroxyphosphoryl)-2-[(R)-3-dodecanoyloxytetradecanoylamino]-β-D-glucopyranosyl]-2-[(R)-3-hydroxytetradecanoylamino]-β-D-glucopyranoside]
TNF-α ([1]; 0.2 μg/ml): 29.3 pg/mL
TNF-α ([1]; 2 μg/ml): 1264 pg/mL
TNF-α ([1]; 20 μg/ml): 7016 pg/mL
TNF-α induction (in words) [1]: induced high levels of TNF-α
IL6 ([2]; 1 μg/ml): 269.0 pg/mL
IL6 ([2]; 5 μg/ml): 1923.2 pg/mL
IL6 ([2]; 20 μg/ml): 8349.3 pg/mL
IL-6 secretion (in words) ([2]; 1, 5, 20 μg/ml): able to induce IL-6 secretion

Compound: CCCCCCCCCCCCCCO[C@@H]1O[C@H](CO[C@@H]2O[C@H](CO)[C@@H](OP(=O)(O)O)[C@H](O)[C@H]2NC(=O)C[C@@H](CCCCCCCCCCC)OC(=O)CCCCCCCCCCC)[C@@H](O)[C@H](O)[C@H]1NC(=O)C[C@H](O)CCCCCCCCCCC [compound 41c, Tetradecyl-2-Deoxy-6-O-[2-deoxy-4-O-(dihydroxyphosphoryl)-2-[(R)-3-dodecanoyloxytetradecanoylamino]-β-D-glucopyranosyl]-2-[(R)-3-hydroxytetradecanoylamino]-β-D-glucopyranoside]
TNF-α ([1]; 0.2 μg/ml): 570 pg/mL
TNF-α ([1]; 2 μg/ml): 6036 pg/mL
TNF-α ([1]; 20 μg/ml): 9769 pg/mL
TNF-α induction (in words) [1]: induced high levels of TNF-α

IL-8 secretion, mean (TLR4; 1 ng/ml): 1.75 pg/mL
IL-8 secretion, mean (TLR4; 4 ng/ml): 1.78 pg/mL
IL-8 secretion, mean (TLR4; 12 ng/ml): 1.76 pg/mL
IL-8 secretion, mean (TLR4; 37 ng/ml): 1.72 pg/mL
IL-8 secretion, mean (TLR4; 111 ng/ml): 1.83 pg/mL
IL-8 secretion, mean (TLR4; 333 ng/ml): 1.87 pg/mL
IL-8 secretion, mean (TLR4; 1000 ng/ml): 2.17 pg/mL
IL-8 secretion, mean (TLR2 and CD14; 1 ng/ml): 1.33 pg/mL
IL-8 secretion, mean (TLR2 and CD14; 4 ng/ml): 2.55 pg/mL
IL-8 secretion, mean (TLR2 and CD14; 12 ng/ml): 6.78 pg/mL
IL-8 secretion, mean (TLR2 and CD14; 37 ng/ml): 15.90 pg/mL
IL-8 secretion, mean (TLR2 and CD14; 111 ng/ml): 22.64 pg/mL
IL-8 secretion, mean (TLR2 and CD14; 333 ng/ml): 33.30 pg/mL
IL-8 secretion, mean (TLR2 and CD14; 1000 ng/ml): 39.04 pg/mL
IL-8 secretion, mean (TLR2; 1 ng/ml): 1.84 pg/mL
IL-8 secretion, mean (TLR2; 4 ng/ml): 3.89 pg/mL
IL-8 secretion, mean (TLR2; 12 ng/ml): 9.12 pg/mL
IL-8 secretion, mean (TLR2; 37 ng/ml): 18.33 pg/mL
IL-8 secretion, mean (TLR2; 111 ng/ml): 23.93 pg/mL
IL-8 secretion, mean (TLR2; 333 ng/ml): 28.24 pg/mL
IL-8 secretion, mean (TLR2; 1000 ng/ml): 32.94 pg/mL
Compound: PAM3CSK4 [reference compound]
Optical density read at 625 nm, mean of duplicates ([3]; 1 ng/ml): 0.48 OD
Optical density read at 625 nm, mean of duplicates ([3]; 4 ng/ml): 0.85 OD
Optical density read at 625 nm, mean of duplicates ([3]; 12 ng/ml): 1.11 OD
Optical density read at 625 nm, mean of duplicates ([3]; 37 ng/ml): 1.22 OD
Optical density read at 625 nm, mean of duplicates ([3]; 111 ng/ml): 1.30 OD
Optical density read at 625 nm, mean of duplicates ([3]; 333 ng/ml): 1.38 OD
Optical density read at 625 nm, mean of duplicates ([3]; 1000 ng/ml): 1.35 OD
